Values joined by “and” are separate entries in the source; they are usually repeats but may differ in a detail not shown here. Equal values may be shown once. Read-outs that look alike come from different tables or passages of the source.

What is called DC50 is the concentration giving 50% degradation. Broadly, the EC50 is the concentration giving half of the maximal effect.

For test [1], the system named is cyclin K–eGFP degradation reporter. Kind of test: Cyclin K reporter stability analysis (dual-color cyclin K–eGFP reporter). Format: cell-based, human. Conditions: Supplementary Table 2; HEK293T cycK-eGFP reporter, 5 h; read-out: Cellular assays DC50. How it is done: HEK293T–Cas9 cells expressing the cyclin K–eGFP degradation reporter were resuspended at 1 × 10^6 ml^−1 and 50 µl of cell suspension was seeded in non-cell-culture-treated 384-well plates. Shortly after, cells were treated with drug or DMSO for 5 h. […] The fluorescent signal was quantified by flow cytometry (LSRFortessa flow cytometer, BD Biosciences). Using FlowJo (flow cytometry analysis software, BD Biosciences), the geometric mean of the eGFP and mCherry fluorescent signal for round and mCherry-positive cells was calculated. The ratio of eGFP to mCherry was normalized to the average of three DMSO-treated controls.

Test [2] concerns the target T1, CDK12–cyclin K and DDB1 (Homo sapiens, UniProt Q16531+Q9NYV4, K965R).
T1 construct: His6–CDK12 (a.a. 713–1,052); full-length or beta-propeller B domain deletion (ΔBPB: a.a. 396–705 deleted) constructs of His6–DDB1ΔBPB, StrepII–Avi–DDB1, or His6–Spy–DDB1; made in house; host or cells: Trichoplusia ni High Five insect cells (baculovirus)
Kind of test: TR-FRET ternary complex formation assay (compound titration). Format: binding. The settings on record: for fold lower affinity than DS11: TR-FRET complex formation; for TR-FRET signal at compound concentration: replicate titrations. In a few lines:
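Delayed (70 μs) time-resolved read; FRET computed as 520 nm over 490 nm emission.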

Test [3] deals with HEK293T cells. Kind of test: Drug sensitivity assay (CellTiter-Glo viability) with or without MLN4924 pretreatment. Format: cell-based, human. Conditions: Supplementary Table 2; for EC50: Homo sapiens, HEK-293T, HEK293T viability, 72 h, compound alone, read-out: Cellular assays EC50; for Toxicity rescue: MLN4924-mediated cytotoxicity rescue, 10 µM used where n.d. In a few lines:
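Viability of HEK293T–Cas9 cells was compared after 3-day drug treatment with or without 100 nM MLN4924 pretreatment (2 h, versus DMSO). Values are CellTiter-Glo signals relative to DMSO controls.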
(In general: Cellular ATP, detected with luciferase, serves as a proxy for viable cell number.)

Where [4] appears, read: Supplementary Table 2, read-out: TR-FRET EC50 TR-FRET.
Setting [5] is: compound concentration 79.2001 nM.
The mark [6] stands for this setting: compound concentration 158.4 nM.
The mark [7] stands for this setting: compound concentration 309.6 nM.
Where [8] appears, read: compound concentration 626.401 nM.
[9] abbreviates: compound concentration 1252.8 nM.
The mark [10] stands for this setting: compound concentration 9936.01 nM.
[11] abbreviates: compound concentration 20016 nM.
[12] abbreviates: in vitro complex formation, 50 nM CDK12–cyclin K, 100 nM DDB1, text and figures, read-out: TR-FRET EC50.

T1 sequence (Q9NYV4 713-1052 K965R): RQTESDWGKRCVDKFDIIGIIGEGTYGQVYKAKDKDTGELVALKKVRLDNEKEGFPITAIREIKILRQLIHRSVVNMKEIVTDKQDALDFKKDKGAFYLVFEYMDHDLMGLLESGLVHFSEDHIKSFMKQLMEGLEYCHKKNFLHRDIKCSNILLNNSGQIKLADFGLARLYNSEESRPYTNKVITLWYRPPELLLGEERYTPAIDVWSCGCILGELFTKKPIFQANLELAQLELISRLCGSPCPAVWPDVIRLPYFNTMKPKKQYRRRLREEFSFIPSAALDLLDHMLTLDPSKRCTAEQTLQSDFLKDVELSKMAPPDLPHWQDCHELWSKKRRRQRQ
T1 sequence (O75909 1-267 partner): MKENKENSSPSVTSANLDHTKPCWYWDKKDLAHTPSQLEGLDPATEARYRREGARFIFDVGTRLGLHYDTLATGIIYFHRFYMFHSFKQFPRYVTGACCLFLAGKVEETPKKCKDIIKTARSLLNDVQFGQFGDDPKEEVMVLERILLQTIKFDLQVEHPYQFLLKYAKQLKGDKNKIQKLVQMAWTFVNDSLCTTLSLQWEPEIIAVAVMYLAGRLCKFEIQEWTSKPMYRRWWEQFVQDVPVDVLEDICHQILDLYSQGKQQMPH
T1 sequence (Q16531 whole entry): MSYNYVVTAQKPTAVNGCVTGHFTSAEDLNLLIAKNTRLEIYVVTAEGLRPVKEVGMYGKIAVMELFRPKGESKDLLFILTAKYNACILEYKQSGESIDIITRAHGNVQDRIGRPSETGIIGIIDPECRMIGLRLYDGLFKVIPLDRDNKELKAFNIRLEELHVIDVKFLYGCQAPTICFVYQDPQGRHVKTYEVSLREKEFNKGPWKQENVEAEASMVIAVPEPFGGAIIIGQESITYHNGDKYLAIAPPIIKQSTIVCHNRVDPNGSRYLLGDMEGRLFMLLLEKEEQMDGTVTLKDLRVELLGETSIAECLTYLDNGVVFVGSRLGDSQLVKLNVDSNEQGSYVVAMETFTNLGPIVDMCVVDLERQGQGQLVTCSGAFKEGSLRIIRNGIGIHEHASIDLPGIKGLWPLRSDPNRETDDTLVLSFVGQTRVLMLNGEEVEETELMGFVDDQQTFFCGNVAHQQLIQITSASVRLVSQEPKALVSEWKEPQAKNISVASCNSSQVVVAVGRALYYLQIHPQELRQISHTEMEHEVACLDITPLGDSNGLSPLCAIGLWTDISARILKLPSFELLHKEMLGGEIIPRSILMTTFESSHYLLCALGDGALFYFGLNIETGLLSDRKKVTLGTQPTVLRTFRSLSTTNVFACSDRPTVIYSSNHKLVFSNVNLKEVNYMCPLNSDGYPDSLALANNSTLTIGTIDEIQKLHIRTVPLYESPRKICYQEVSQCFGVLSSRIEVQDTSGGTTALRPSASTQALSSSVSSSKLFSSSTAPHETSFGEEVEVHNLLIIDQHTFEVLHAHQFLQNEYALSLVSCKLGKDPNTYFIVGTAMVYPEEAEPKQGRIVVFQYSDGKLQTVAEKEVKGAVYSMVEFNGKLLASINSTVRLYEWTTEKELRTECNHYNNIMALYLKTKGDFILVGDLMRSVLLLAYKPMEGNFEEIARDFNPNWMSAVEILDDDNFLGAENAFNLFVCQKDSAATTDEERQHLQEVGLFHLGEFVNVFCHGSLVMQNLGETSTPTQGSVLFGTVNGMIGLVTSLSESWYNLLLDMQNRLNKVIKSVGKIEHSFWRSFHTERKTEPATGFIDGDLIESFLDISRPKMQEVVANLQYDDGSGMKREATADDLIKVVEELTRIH

`CC[C@H](CO)Nc1nc(NCCCCc2ccccc2)c2ncn(C(C)C)c2n1` [DS09]: the DC50 in test [1] is above 10000 nM. For the same molecule, the EC50 in test [2] (setting [4]) is 349 nM; in test [2] (setting [12]) it was 349 ± 15 nM; in test [2] (sheet MOESM7, read-out: log TR-FRET EC50 (converted)) it was 349 nM; in test [3], above 10000 nM. In addition, the “fold lower affinity than DS11” value in test [2] is 5-10 fold. In addition, the TR-FRET signal in test [2] (compound concentration 4.68 nM) is 0.1538 and 0.1597; in test [2] (compound concentration 21.6 nM), 0.2215 and 0.2268; in test [2] (compound concentration 36 nM), 0.3624 and 0.3872; in test [2] (setting [5]), 0.5721 and 0.6282; in test [2] (setting [6]), 0.8913 and 0.9385; in test [2] (setting [7]), 1.311 and 1.295. Further, the TR-FRET signal in test [2] (setting [8]) was 1.632 and 1.6565; in test [2] (setting [9]) it was 1.8858 and 2.021; in test [2] (compound concentration 2448 nM) it was 2.206 and 2.209; in test [2] (setting [10]), 2.4811 and 2.469; in test [2] (setting [11]), 2.543 and 2.456. For the same molecule, the “TR-FRET signal at compound concentration” value in test [2] (compound concentration 4.68 nM) was 0.1538 and 0.1597; in test [2] (compound concentration 21.6 nM), 0.2215 and 0.2268; in test [2] (compound concentration 36 nM), 0.3624 and 0.3872; in test [2] (setting [5]) it was 0.5721 and 0.6282; in test [2] (setting [6]) it was 0.8913 and 0.9385; in test [2] (setting [7]), 1.311 and 1.295. Besides, the “TR-FRET signal at compound concentration” value is 1.632 and 1.6565 in test [2] (setting [8]); 1.8858 and 2.021 in test [2] (setting [9]); 2.206 and 2.209 in test [2] (compound concentration 2448 nM); 2.4811 and 2.469 in test [2] (setting [10]); 2.543 and 2.456 in test [2] (setting [11]). In addition, in test [3], the Toxicity rescue worked out at 0%.
For the molecule `CC[C@H](CO)Nc1nc(NCCCCCCc2ccccc2)c2ncn(C(C)C)c2n1` [DS10], the DC50 in test [1] is above 10000 nM. The figures for the EC50 in test [2] (setting [4]), in test [2] (setting [12]) and in test [3] were 595 nM, 595 ± 91 nM and above 10000 nM, respectively. For the same molecule, in test [2], the “fold lower affinity than DS11” value is listed as 5-10 fold. For the same molecule, the “TR-FRET signal at compound concentration” value was 0.1344 and 0.1608 in test [2] (compound concentration 4.68 nM); 0.1474 and 0.1725 in test [2] (compound concentration 21.6 nM); 0.1731 and 0.2063 in test [2] (compound concentration 36 nM); 0.1998 and 0.2552 in test [2] (setting [5]); 0.2546 and 0.3178 in test [2] (setting [6]); 0.334 and 0.4076 in test [2] (setting [7]). The “TR-FRET signal at compound concentration” value is 0.4243 and 0.5117 in test [2] (setting [8]); 0.5049 and 0.5958 in test [2] (setting [9]); 0.6152 and 0.6779 in test [2] (compound concentration 2448 nM); 0.7339 and 0.7716 in test [2] (setting [10]); 0.6991 and 0.7616 in test [2] (setting [11]). Further, the Toxicity rescue in test [3] stood at 0%.

Source of the values: paper PMC10746543, “Design principles for cyclin K molecular glue degraders” (Nature Chemical Biology, 2023).
